According to patent US20150105252A1, “SUBSTITUTED PYRAZOLES AS HERBICIDES” (E I DU PONT DE NEMOURS AND COMPANY, priority 2013, published 2015):

What was measured:
barnyardgrass [1] = assay: Test A preemergence; format: in vivo, Echinochloa crus-galli; conditions: Preemergence, 1000 g ai/ha; 0 to 100 scale, 0 no effect, 100 complete control
In short: (§1)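 Pre- and postemergence greenhouse test; loam+sand; cpd in non-phytotox. solvent/surfactant; post at 1–2 leaf, 2–10 cm; visual score ~10 d, 0 = none, 100 = complete control.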

crabgrass, large [2] = assay: Test A preemergence; format: in vivo, Digitaria sanguinalis; conditions: Preemergence, 1000 g ai/ha; 0 to 100 scale, 0 no effect, 100 complete control
In short: as §1

foxtail, giant [3] = assay: Test A preemergence; format: in vivo, Setaria faberii; conditions: Preemergence, 1000 g ai/ha; 0 to 100 scale, 0 no effect, 100 complete control
In short: as §1

morningglory [4] = assay: Test A preemergence; format: in vivo, Ipomoea spp.; conditions: Preemergence, 1000 g ai/ha; 0 to 100 scale, 0 no effect, 100 complete control
In short: as §1

pigweed [5] = assay: Test A preemergence; format: in vivo, Amaranthus retroflexus; conditions: Preemergence, 1000 g ai/ha; 0 to 100 scale, 0 no effect, 100 complete control
In short: as §1

velvetleaf [6] = assay: Test A preemergence; format: in vivo, Abutilon theophrasti; conditions: Preemergence, 1000 g ai/ha; 0 to 100 scale, 0 no effect, 100 complete control
In short: as §1

wheat [7] = assay: Test A preemergence; format: in vivo, Triticum aestivum; conditions: Preemergence, 1000 g ai/ha; 0 to 100 scale, 0 no effect, 100 complete control
In short: as §1

corn [8] = assay: Test A preemergence; format: in vivo, Zea mays; conditions: Preemergence, 1000 g ai/ha; 0 to 100 scale, 0 no effect, 100 complete control
In short: as §1

barnyardgrass [9] = assay: Test A postemergence; format: in vivo, Echinochloa crus-galli; conditions: Postemergence, 1000 g ai/ha; visual rating after approx. 10 days, 0 to 100 scale (0 no effect, 100 complete control)
In short: as §1

crabgrass, large [10] = assay: Test A postemergence; format: in vivo, Digitaria sanguinalis; conditions: Postemergence, 1000 g ai/ha; visual rating after approx. 10 days, 0 to 100 scale (0 no effect, 100 complete control)
In short: as §1

foxtail, giant [11] = assay: Test A postemergence; format: in vivo, Setaria faberii; conditions: Postemergence, 1000 g ai/ha; visual rating after approx. 10 days, 0 to 100 scale (0 no effect, 100 complete control)
In short: as §1

morningglory [12] = assay: Test A postemergence; format: in vivo, Ipomoea spp.; conditions: Postemergence, 1000 g ai/ha; visual rating after approx. 10 days, 0 to 100 scale (0 no effect, 100 complete control)
In short: as §1

pigweed [13] = assay: Test A postemergence; format: in vivo, Amaranthus retroflexus; conditions: Postemergence, 1000 g ai/ha; visual rating after approx. 10 days, 0 to 100 scale (0 no effect, 100 complete control)
In short: as §1

velvetleaf [14] = assay: Test A postemergence; format: in vivo, Abutilon theophrasti; conditions: Postemergence, 1000 g ai/ha; visual rating after approx. 10 days, 0 to 100 scale (0 no effect, 100 complete control)
In short: as §1

wheat [15] = assay: Test A postemergence; format: in vivo, Triticum aestivum; conditions: Postemergence, 1000 g ai/ha; visual rating after approx. 10 days, 0 to 100 scale (0 no effect, 100 complete control)
In short: as §1

corn [16] = assay: Test A postemergence; format: in vivo, Zea mays; conditions: Postemergence, 1000 g ai/ha; visual rating after approx. 10 days, 0 to 100 scale (0 no effect, 100 complete control)
In short: as §1

rice = assay: Test C flooded paddy test; format: in vivo, Oryza sativa; conditions: Flood
Source text: (§2) At time of treatment, test pots were flooded to 3 cm above the soil surface, treated by application of test compounds directly to the paddy water, and then maintained at that water depth for the duration of the test. Treated plants and controls were maintained in a greenhouse for 13 to 15 days, after which time all species were compared to controls and visually evaluated. […] A dash (-) response means no test result.

sedge, umbrella = assay: Test C flooded paddy test; format: in vivo, Cyperus difformis; conditions: Flood
Source text: as §2

ducksalad = assay: Test C flooded paddy test; format: in vivo, Heteranthera limosa; conditions: Flood
Source text: as §2

barnyardgrass [17] = assay: Test C flooded paddy test; format: in vivo, Echinochloa crus-galli; conditions: Flood
Source text: as §2

[18] = 31 g ai/ha, scale 0 to 100 (0 no effect, 100 complete control)
[19] = 62 g ai/ha, scale 0 to 100 (0 no effect, 100 complete control)

Row | SMILES | Barnyardgrass plant response rating (barnyardgrass [1]) | Crabgrass, Large plant response rating (crabgrass, large [2]) | Foxtail, Giant plant response rating (foxtail, giant [3]) | Morningglory plant response rating (morningglory [4]) | Pigweed plant response rating (pigweed [5]) | Velvetleaf plant response rating (velvetleaf [6]) | Wheat plant response rating (wheat [7]) | Corn plant response rating (corn [8]) | Barnyardgrass plant response rating (barnyardgrass [9]) | Crabgrass, Large plant response rating (crabgrass, large [10]) | Foxtail, Giant plant response rating (foxtail, giant [11]) | Morningglory plant response rating (morningglory [12]) | Pigweed plant response rating (pigweed [13]) | Velvetleaf plant response rating (velvetleaf [14]) | Wheat plant response rating (wheat [15]) | Corn plant response rating (corn [16]) | Plant response rating, Rice (rice; [18]) | Plant response rating, Rice (rice; [19]) | Plant response rating, Rice (rice; 125 g ai/ha, scale 0 to 100) | Plant response rating, Rice (rice; 250 g ai/ha, scale 0 to 100) | further results
1 | CCCc1cc(C(=O)NCC)nn1Cc1cccc(OC(F)(F)F)c1 [Compound 33] | 40 | 100 | 90 | 40 | 90 | 40 | 10 | 0 | 30 | 80 | 70 | 100 | 80 | 80 | 20 | 20 | 0 | 0 | 0 | 0 | Plant response rating, Sedge, Umbrella (sedge, umbrella; [18]): 10; Plant response rating, Sedge, Umbrella (sedge, umbrella; [19]): 30; Plant response rating, Sedge, Umbrella (sedge, umbrella; 125 g ai/ha, scale 0 to 100): 30; Plant response rating, Sedge, Umbrella (sedge, umbrella; 250 g ai/ha, scale 0 to 100): 85; Plant response rating, Ducksalad (ducksalad; [18]): 0; Plant response rating, Ducksalad (ducksalad; [19]): 10; Plant response rating, Ducksalad (ducksalad; 125 g ai/ha, scale 0 to 100): 20; Plant response rating, Ducksalad (ducksalad; 250 g ai/ha, scale 0 to 100): 80; Plant response rating, Barnyardgrass (barnyardgrass [17]; [18]): 0; Plant response rating, Barnyardgrass (barnyardgrass [17]; [19]): 0; Plant response rating, Barnyardgrass (barnyardgrass [17]; 125 g ai/ha, scale 0 to 100): 0; Plant response rating, Barnyardgrass (barnyardgrass [17]; 250 g ai/ha, scale 0 to 100): 0
2 | CCCc1cc(C(=O)NC2CC2)nn1Cc1cccc(OC(F)(F)F)c1 [Compound 34] | 60 | 100 | 100 | 60 | 80 | 30 | 20 | 10 | 50 | 90 | 90 | 100 | 100 | 100 | 30 | 40 | 0 | 0 | 0 | 10 | Plant response rating, Sedge, Umbrella (sedge, umbrella; [18]): 0; Plant response rating, Sedge, Umbrella (sedge, umbrella; [19]): 10; Plant response rating, Sedge, Umbrella (sedge, umbrella; 125 g ai/ha, scale 0 to 100): 70; Plant response rating, Sedge, Umbrella (sedge, umbrella; 250 g ai/ha, scale 0 to 100): 80; Plant response rating, Ducksalad (ducksalad; [18]): 0; Plant response rating, Ducksalad (ducksalad; [19]): 10; Plant response rating, Ducksalad (ducksalad; 125 g ai/ha, scale 0 to 100): 30; Plant response rating, Ducksalad (ducksalad; 250 g ai/ha, scale 0 to 100): 80; Plant response rating, Barnyardgrass (barnyardgrass [17]; [18]): 0; Plant response rating, Barnyardgrass (barnyardgrass [17]; [19]): 0; Plant response rating, Barnyardgrass (barnyardgrass [17]; 125 g ai/ha, scale 0 to 100): 0; Plant response rating, Barnyardgrass (barnyardgrass [17]; 250 g ai/ha, scale 0 to 100): 20
